Test system: adult fleas (C. felis)
Assay: In vitro membrane feeding exposure to assess flea reproduction
Set-up: species or system Ctenocephalides felis
Conditions: for Pupal Development Control / Larval Emergence: eggs of parent fleas fed 0.09 ng/mL in blood
Method: A membrane feeding method [Wade S E, Georgi J R. Survival and reproduction of artificially fed cat fleas, Ctenocephalides felis Bouché (Siphonaptera: Pulicidae). J Med Entomol 1988, 25: 186-190.] was modified to assess the impact of fluralaner exposure on flea reproduction. Defibrinated sheep blood was prepared in a series of dilutions with fluralaner to obtain concentrations between 50.0 and 0.09 ng/mL. These test solutions were prepared twice and each preparation was tested in duplicate resulting in a total of 4 replicates per concentration, along with a fluralaner negative solvent control (a solvent concentration equivalent to that of the highest concentrated fluralaner test solution) and an untreated control.
Unfed adult fleas (C. felis; 20 males and 20 females) were placed into a plastic unit that was then closed with a gauze lid. A grid inside the plastic unit divided the unit into 2 chambers, an upper chamber for flea feeding and a lower chamber for egg collection. Test or control blood preparations (2 ml) were placed in an artificial membrane closed glass tube that was then placed on the plastic unit as the food source. Feeding units were incubated (38° C. and 60% RH) for 10 days. Test and negative control blood preparations were freshly prepared and exchanged (on days 1, 3, 5, and 8) to permit continuous flea feeding. Fleas were transferred into fresh plastic units on Days 5 and 8 to facilitate egg collection. Collected eggs were mixed with flea nourishment medium and incubated (28° C. and 80% RH) in darkness for 22 (±3) days to enable flea development. Parameters recorded were flea survival, oviposition control, egg hatchability, pupa control, flea-emergence control and reproduction inhibition.

[1] = 0.09 ng/mL in blood, exposure day 3
[2] = 0.09 ng/mL in blood, exposure day 4
[3] = 0.09 ng/mL in blood, exposure day 5
[4] = 0.09 ng/mL in blood, exposure day 8
[5] = 0.09 ng/mL in blood, exposure day 9
[6] = 0.09 ng/mL in blood, exposure day 10
[7] = 0.19 ng/mL in blood, exposure day 3
[8] = 0.19 ng/mL in blood, exposure day 4
[9] = 0.19 ng/mL in blood, exposure day 5
[10] = 0.19 ng/mL in blood, exposure day 8
[11] = 0.19 ng/mL in blood, exposure day 9
[12] = 0.19 ng/mL in blood, exposure day 10
[13] = 0.39 ng/mL in blood, exposure day 3
[14] = 0.39 ng/mL in blood, exposure day 4
[15] = 0.39 ng/mL in blood, exposure day 5
[16] = 0.39 ng/mL in blood, exposure day 8
[17] = 0.39 ng/mL in blood, exposure day 9
[18] = 0.39 ng/mL in blood, exposure day 10
[19] = 0.78 ng/mL in blood, exposure day 3
[20] = 0.78 ng/mL in blood, exposure day 4
[21] = 0.78 ng/mL in blood, exposure day 5
[22] = 0.78 ng/mL in blood, exposure day 8
[23] = 0.78 ng/mL in blood, exposure day 9
[24] = 0.78 ng/mL in blood, exposure day 10
[25] = 1.56 ng/mL in blood, exposure day 3
[26] = 1.56 ng/mL in blood, exposure day 4
[27] = 1.56 ng/mL in blood, exposure day 5
[28] = 1.56 ng/mL in blood, exposure day 8
[29] = 1.56 ng/mL in blood, exposure day 9
[30] = 1.56 ng/mL in blood, exposure day 10
[31] = 3.13 ng/mL in blood, exposure day 3
[32] = 3.13 ng/mL in blood, exposure day 4
[33] = 3.13 ng/mL in blood, exposure day 5
[34] = 3.13 ng/mL in blood, exposure day 8
[35] = 3.13 ng/mL in blood, exposure day 9
[36] = 3.13 ng/mL in blood, exposure day 10
[37] = 6.25 ng/mL in blood, exposure day 3
[38] = 6.25 ng/mL in blood, exposure day 4
[39] = 6.25 ng/mL in blood, exposure day 5
[40] = 6.25 ng/mL in blood, exposure day 8
[41] = 6.25 ng/mL in blood, exposure day 9
[42] = 6.25 ng/mL in blood, exposure day 10
[43] = 12.5 ng/mL in blood, exposure day 3
[44] = 12.5 ng/mL in blood, exposure day 4
[45] = 12.5 ng/mL in blood, exposure day 5
[46] = 12.5 ng/mL in blood, exposure day 8
[47] = 12.5 ng/mL in blood, exposure day 9
[48] = 12.5 ng/mL in blood, exposure day 10
[49] = 25.0 ng/mL in blood, exposure day 3
[50] = 25.0 ng/mL in blood, exposure day 4
[51] = 25.0 ng/mL in blood, exposure day 5
[52] = 50.0 ng/mL in blood, exposure day 3
[53] = 50.0 ng/mL in blood, exposure day 4
[54] = 50.0 ng/mL in blood, exposure day 5

Cc1cc(C2=NOC(c3cc(Cl)cc(Cl)c3)(C(F)(F)F)C2)ccc1C(=O)NCC(=O)NCC(F)(F)F (stereo not shown) [fluralaner, 4-[5-(3,5-Dichlorophenyl)-5-trifluoromethyl-4,5-dihydroisoxazol-3-yl]-2-methyl-N-[(2,2,2-trifluoro-ethylcarbamoyl)-methyl]-benzamide]
Oviposition Control (0.09 ng/mL in blood, arithmetic mean of exposure days): 7.9%
Flea Survival (0.09 ng/mL in blood, exposure day 2): 100%
Flea Survival [1]: 100%
Oviposition Control [1]: 0%
Flea Survival [2]: 100%
Oviposition Control [2]: 11.3%
Flea Survival [3]: 100%
Oviposition Control [3]: 10.9%
Flea Survival [4]: 100%
Oviposition Control [4]: 16.7%
Flea Survival [5]: 100%
Oviposition Control [5]: 0.3%
Flea Survival [6]: 100%
Oviposition Control [6]: 8.1%
Oviposition Control (0.19 ng/mL in blood, arithmetic mean of exposure days): 9.2%
Flea Survival (0.19 ng/mL in blood, exposure day 2): 100%
Flea Survival [7]: 100%
Oviposition Control [7]: 0%
Flea Survival [8]: 100%
Oviposition Control [8]: 5.1%
Flea Survival [9]: 100%
Oviposition Control [9]: 21.0%
Flea Survival [10]: 100%
Oviposition Control [10]: 15.1%
Flea Survival [11]: 100%
Oviposition Control [11]: 0%
Flea Survival [12]: 100%
Oviposition Control [12]: 13.9%
Oviposition Control (0.39 ng/mL in blood, arithmetic mean of exposure days): 16.1%
Flea Survival (0.39 ng/mL in blood, exposure day 2): 100%
Flea Survival [13]: 100%
Oviposition Control [13]: 6.72%
Flea Survival [14]: 100%
Oviposition Control [14]: 22.8%
Flea Survival [15]: 100%
Oviposition Control [15]: 23.2%
Flea Survival [16]: 100%
Oviposition Control [16]: 23.8%
Flea Survival [17]: 100%
Oviposition Control [17]: 0%
Flea Survival [18]: 98.7%
Oviposition Control [18]: 20.3%
Oviposition Control (0.78 ng/mL in blood, arithmetic mean of exposure days): 9.4%
Flea Survival (0.78 ng/mL in blood, exposure day 2): 100%
Flea Survival [19]: 100%
Oviposition Control [19]: 8.7%
Flea Survival [20]: 100%
Oviposition Control [20]: 3.0%
Flea Survival [21]: 100%
Oviposition Control [21]: 13.8%
Flea Survival [22]: 100%
Oviposition Control [22]: 12.5%
Flea Survival [23]: 100%
Oviposition Control [23]: 0%
Flea Survival [24]: 100%
Oviposition Control [24]: 18.5%
Oviposition Control (1.56 ng/mL in blood, arithmetic mean of exposure days): 21.1%
Flea Survival (1.56 ng/mL in blood, exposure day 2): 100%
Flea Survival [25]: 100%
Oviposition Control [25]: 0%
Flea Survival [26]: 99.4%
Oviposition Control [26]: 0%
Flea Survival [27]: 99.1%
Oviposition Control [27]: 17.3%
Flea Survival [28]: 93.9%
Oviposition Control [28]: 49.8%
Flea Survival [29]: 92.9%
Oviposition Control [29]: 30.1%
Flea Survival [30]: 90.3%
Oviposition Control [30]: 29.2%
Oviposition Control (3.13 ng/mL in blood, arithmetic mean of exposure days): 50.5%
Flea Survival (3.13 ng/mL in blood, exposure day 2): 100%
Flea Survival [31]: 100%
Oviposition Control [31]: 32.0%
Flea Survival [32]: 98.7%
Oviposition Control [32]: 35.7%
Flea Survival [33]: 97.8%
Oviposition Control [33]: 43.1%
Flea Survival [34]: 83.1%
Oviposition Control [34]: 70.5%
Flea Survival [35]: 79.5%
Oviposition Control [35]: 59.9%
Flea Survival [36]: 78.8%
Oviposition Control [36]: 62.0%
Oviposition Control (6.25 ng/mL in blood, arithmetic mean of exposure days): 80.6%
Flea Survival (6.25 ng/mL in blood, exposure day 2): 100%
Flea Survival [37]: 100%
Oviposition Control [37]: 82.6%
Flea Survival [38]: 97.5%
Oviposition Control [38]: 85.9%
Flea Survival [39]: 92.8%
Oviposition Control [39]: 81.3%
Flea Survival [40]: 85.0%
Oviposition Control [40]: 79.9%
Flea Survival [41]: 73.1%
Oviposition Control [41]: 67.5%
Flea Survival [42]: 69.7%
Oviposition Control [42]: 86.4%
Oviposition Control (12.5 ng/mL in blood, arithmetic mean of exposure days): 99.6%
Flea Survival (12.5 ng/mL in blood, exposure day 2): 100%
Flea Survival [43]: 100%
Oviposition Control [43]: 99.6%
Flea Survival [44]: 67.5%
Oviposition Control [44]: 100%
Flea Survival [45]: 38.9%
Oviposition Control [45]: 100%
Flea Survival [46]: 21.7%
Oviposition Control [46]: 98.9%
Flea Survival [47]: 17.9%
Oviposition Control [47]: 99.1%
Flea Survival [48]: 12.3%
Oviposition Control [48]: 100%
Oviposition Control (25.0 ng/mL in blood, arithmetic mean of exposure days): 100%
Flea Survival (25.0 ng/mL in blood, exposure day 2): 90.6%
Flea Survival [49]: 67.5%
Oviposition Control [49]: 100%
Flea Survival [50]: 31.9%
Oviposition Control [50]: 100%
Flea Survival [51]: 11.3%
Oviposition Control [51]: 100%
Flea Survival (25.0 ng/mL in blood, exposure day 8): 0%
Flea Survival (25.0 ng/mL in blood, exposure day 9): 0%
Flea Survival (25.0 ng/mL in blood, exposure day 10): 0%
Oviposition Control (50.0 ng/mL in blood, arithmetic mean of exposure days): 100%
Flea Survival (50.0 ng/mL in blood, exposure day 2): 78.1%
Flea Survival [52]: 20.0%
Oviposition Control [52]: 100%
Flea Survival [53]: 8.7%
Oviposition Control [53]: 100%
Flea Survival [54]: 1.2%
Oviposition Control [54]: 100%
Flea Survival (50.0 ng/mL in blood, exposure day 8): 0%
Flea Survival (50.0 ng/mL in blood, exposure day 9): 0%
Flea Survival (50.0 ng/mL in blood, exposure day 10): 0%
Pupal Development Control (arithmetic mean of exposure days): 4.0%
Larval Emergence (exposure day 3): yes
Pupal Development Control (exposure day 3): 9.1%
Larval Emergence (exposure day 4): yes
Pupal Development Control (exposure day 4): 4.5%
Larval Emergence (exposure day 5): yes
Pupal Development Control (exposure day 5): 1.4%
Larval Emergence (exposure day 8): yes

— US9655884B2, “Antiparasitic use of isoxazoline compounds” (Intervet Inc., priority 2013, dated 2017)
